Data: patent publication US9211310B2, “Use of a Chinese medicine composition in preparing medicaments for treating secondary prevention of myocardial infarction” (TASLY PHARMACEUTICAL GROUP CO., LTD, priority 2010, dated 2015)

Tested on: patients after acute myocardial infarction
Assay: Life quality, Seattle Angina Questionnaire (SAQ), same clinical trial
Format: in vivo, human
Conditions: Follow-up
From the text: 3508 patients who were in accordance with the diagnostic standards of AMI for 28 days to 2 years and differentiated as Qi deficiency and blood stagnation syndrome by TCM were studied. 0.5 g Chinese medicine composition prepared by the method of EXAMPLE 1 (Coded as QSYQ) was administrated half an hour after meal, 3 times per day.
There were 19 questions in the Seattle angina questionnaire (SAQ), including 5 parts: physical limitation (PL), anginal stability (AS), anginal frequency (AF), treatment satisfaction (TS) and disease perception (DP). After being given necessary explanation by doctors, the questions were answered independently by patients.
They included the overall survival time, angina pectoris score, TCM symptom score and life quality score, where angina pectoris score, TCM symptom score and life quality score were evaluated at randomization, in 1st, 3rd, 6th, 9th, 12th month after treatment and 18th month after follow-up.
All evaluation results of SAQ were described during the period of observation, and Wilcoxon rank sum test was used for inter-group comparison.
The evaluation results in the SAQ were depicted in different observations, and inter-group comparison was tested by Wilcoxon Rank-sum test.

[1] = FAS, second line headed Not limited (r60)

## CC(=O)Oc1ccccc1C(=O)O [Control group, aspirine]
FAS
  SAQ 7th question, Mostly satisfied: number of patients: 908
  SAQ 7th question, Partly satisfied: % of patients: (6.68%)
  SAQ 7th question, Partly satisfied: number of patients: 97
  SAQ Question 1-1 Mildly limited, number of patients: 6
  SAQ Question 1-1 Mildly limited, percent of patients: (0.42%)
  SAQ Question 1-1 Moderately limited, number of patients: 1
  SAQ Question 1-1 Moderately limited, percent of patients: (0.07%)
  SAQ Question 1-1 Not limited, number of patients: 1386
  SAQ Question 1-1 Not limited, percent of patients: (95.98%)
  SAQ Question 1-1 Other reasons, number of patients: 5
  SAQ Question 1-1 Other reasons, percent of patients: (0.35%)
  SAQ Question 1-1 Severely limited, number of patients: 1
  SAQ Question 1-1 Severely limited, percent of patients: (0.07%)
  SAQ Question 1-1 Slightly limited, number of patients: 45
  SAQ Question 1-1 Slightly limited, percent of patients: (3.12%)
  SAQ Question 1-2 Mildly limited, number of patients: 8
  SAQ Question 1-2 Mildly limited, percent of patients: (0.55%)
  SAQ Question 1-2 Moderately limited, number of patients: 0
  SAQ Question 1-2 Moderately limited, percent of patients: (0.00%)
  SAQ Question 1-2 Not limited, number of patients: 1370
  SAQ Question 1-2 Not limited, percent of patients: (94.88%)
  SAQ Question 1-2 Severely limited, number of patients: 2
  SAQ Question 1-2 Severely limited, percent of patients: (0.14%)
  SAQ Question 1-2 Slightly limited, number of patients: 57
  SAQ Question 1-2 Slightly limited, percent of patients: (3.95%)
  SAQ Question 1-6: Mildly limited, patients (%): (11.47%)
  SAQ Question 1-6: Moderately limited, patients (%): (9.24%)
  SAQ Question 1-6: Not limited, patients (%): (42.11%)
  SAQ Question 1-6: Other reasons, patients (%): (0.83%)
  SAQ Question 1-6: Severely limited, patients (%): (2.22%)
  SAQ Question 1-6: Slightly limited, patients (%): (34.12%)
  SAQ Question 1-7: Mildly limited, patients (%): (22.01%)
  SAQ Question 1-7: Moderately limited, patients (%): (6.75%)
  SAQ Question 1-7: Not limited, patients (%): (22.08%)
  SAQ Question 1-7: Other reasons, patients (%): (2.53%)
  SAQ Question 1-7: Severely limited, patients (%): (11.67%)
  SAQ Question 1-7: Slightly limited, patients (%): (34.95%)
  SAQ Question 1-8: Mildly limited, patients (%): (25.02%)
  SAQ Question 1-8: Moderately limited, patients (%): (11.91%)
  SAQ Question 1-8: Not limited, patients (%): (15.02%)
  SAQ Question 1-8: Other reasons, patients (%): (3.19%)
  SAQ Question 1-8: Severely limited, patients (%): (14.74%)
  SAQ Question 1-8: Slightly limited, patients (%): (30.12%)
  SAQ 2nd question: Clearly increased, % of cases: (0.21%)
  SAQ 2nd question: Clearly increased, cases: 3
  SAQ 2nd question: Clearly reduced, % of cases: (27.82%)
  SAQ 2nd question: Clearly reduced, cases: 402
  SAQ 2nd question: Same, % of cases: (39.24%)
  SAQ 2nd question: Same, cases: 567
  SAQ 2nd question: Slightly increased, % of cases: (7.40%)
  SAQ 2nd question: Slightly increased, cases: 107
  SAQ 2nd question: Slightly reduced, % of cases: (25.33%)
  SAQ 2nd question: Slightly reduced, cases: 366
  SAQ 3rd question: 1-2 times per week, % of cases: (25.33%)
  SAQ 3rd question: 1-2 times per week, cases: 366
  SAQ 3rd question: 1-3 times per day, % of cases: (7.40%)
  SAQ 3rd question: 1-3 times per day, cases: 107
  SAQ 3rd question: <1 time per week, % of cases: (27.82%)
  SAQ 3rd question: <1 time per week, cases: 402
  SAQ 3rd question: No onset, % of cases: (0.00%)
  SAQ 3rd question: No onset, cases: 0
  SAQ 3rd question: ≧3 times per week, % of cases: (39.24%)
  SAQ 3rd question: ≧3 times per week, cases: 567
  SAQ 3rd question: ≧4 times per day, % of cases: (0.21%)
  SAQ 3rd question: ≧4 times per day, cases: 3
  SAQ Question 1-3: Mildly limited, number of patients: 30
  SAQ Question 1-3: Mildly limited, percent of patients: (2.08%)
  SAQ Question 1-3: Moderately limited, number of patients: 6
  SAQ Question 1-3: Moderately limited, percent of patients: (0.42%)
  SAQ Question 1-3: Not limited, number of patients: 1206
  SAQ Question 1-3: Not limited, percent of patients: (83.58%)
  SAQ Question 1-3: Other reasons, number of patients: 9
  SAQ Question 1-3: Other reasons, percent of patients: (0.62%)
  SAQ Question 1-3: Severely limited, number of patients: 2
  SAQ Question 1-3: Severely limited, percent of patients: (0.14%)
  SAQ Question 1-3: Slightly limited, number of patients: 190
  SAQ Question 1-3: Slightly limited, percent of patients: (13.17%)
  SAQ Question 1-4: Mildly limited, number of patients: 177
  SAQ Question 1-4: Mildly limited, percent of patients: (12.28%)
  SAQ Question 1-4: Moderately limited, number of patients: 38
  SAQ Question 1-4: Moderately limited, percent of patients: (2.64%)
  SAQ Question 1-4: Not limited, number of patients: 775
  SAQ Question 1-4: Not limited, percent of patients: (53.78%)
  SAQ Question 1-4: Other reasons, number of patients: 10
  SAQ Question 1-4: Other reasons, percent of patients: (0.69%)
  SAQ Question 1-4: Severely limited, number of patients: 5
  SAQ Question 1-4: Severely limited, percent of patients: (0.35%)
  SAQ Question 1-4: Slightly limited, number of patients: 436
  SAQ Question 1-4: Slightly limited, percent of patients: (30.26%)
  SAQ Question 1-5: Mildly limited, number of patients: 189
  SAQ Question 1-5: Mildly limited, percent of patients: (13.12%)
  SAQ Question 1-5: Moderately limited, number of patients: 57
  SAQ Question 1-5: Moderately limited, percent of patients: (3.96%)
  SAQ Question 1-5: Not limited, number of patients: 783
  SAQ Question 1-5: Not limited, percent of patients: (54.34%)
  SAQ Question 1-5: Other reasons, number of patients: 8
  SAQ Question 1-5: Other reasons, percent of patients: (0.56%)
  SAQ Question 1-5: Severely limited, number of patients: 9
  SAQ Question 1-5: Severely limited, percent of patients: (0.62%)
  SAQ Question 1-5: Slightly limited, number of patients: 395
  SAQ Question 1-5: Slightly limited, percent of patients: (27.41%)
  SAQ Question 1-9: Mildly limited, % of cases: (20.40%)
  SAQ Question 1-9: Mildly limited, cases: 285
  SAQ Question 1-9: Moderately limited, % of cases: (21.19%)
  SAQ Question 1-9: Moderately limited, cases: 296
  SAQ Question 1-9: Not limited, % of cases: (6.08%)
  SAQ Question 1-9: Not limited, cases: 85
  SAQ Question 1-9: Other reasons, % of cases: (4.65%)
  SAQ Question 1-9: Other reasons, cases: 65
  SAQ Question 1-9: Severely-limited, % of cases: (27.13%)
  SAQ Question 1-9: Severely-limited, cases: 379
  SAQ Question 1-9: Slightly limited, % of cases: (20.54%)
  SAQ Question 1-9: Slightly limited, cases: 287
[1]
  SAQ Question 1-2 Not limited, number of patients: 7
  SAQ Question 1-2 Not limited, percent of patients: (0.48%)
PP
  SAQ 2nd question: Clearly increased, % of cases: (0.21%)
  SAQ 2nd question: Clearly increased, cases: 3
  SAQ 2nd question: Clearly reduced, % of cases: (27.66%)
  SAQ 2nd question: Clearly reduced, cases: 390
  SAQ 2nd question: Same, % of cases: (39.15%)
  SAQ 2nd question: Same, cases: 552
  SAQ 2nd question: Slightly increased, % of cases: (7.38%)
  SAQ 2nd question: Slightly increased, cases: 104
  SAQ 2nd question: Slightly reduced, % of cases: (25.60%)
  SAQ 2nd question: Slightly reduced, cases: 361
  SAQ 3rd question: 1-2 times per week, % of cases: (25.60%)
  SAQ 3rd question: 1-2 times per week, cases: 361
  SAQ 3rd question: 1-3 times per day, % of cases: (7.38%)
  SAQ 3rd question: 1-3 times per day, cases: 104
  SAQ 3rd question: <1 time per week, % of cases: (27.66%)
  SAQ 3rd question: <1 time per week, cases: 390
  SAQ 3rd question: No onset, % of cases: (0.00%)
  SAQ 3rd question: No onset, cases: 0
  SAQ 3rd question: ≧3 times per week, % of cases: (39.15%)
  SAQ 3rd question: ≧3 times per week, cases: 552
  SAQ 3rd question: ≧4 times per day, % of cases: (0.21%)
  SAQ 3rd question: ≧4 times per day, cases: 3
  SAQ Question 1-3: Mildly limited, number of patients: 30
  SAQ Question 1-3: Mildly limited, percent of patients: (2.13%)
  SAQ Question 1-3: Moderately limited, number of patients: 6
  SAQ Question 1-3: Moderately limited, percent of patients: (0.43%)
  SAQ Question 1-3: Not limited, number of patients: 1179
  SAQ Question 1-3: Not limited, percent of patients: (83.74%)
  SAQ Question 1-3: Other reasons, number of patients: 9
  SAQ Question 1-3: Other reasons, percent of patients: (0.64%)
  SAQ Question 1-3: Severely limited, number of patients: 2
  SAQ Question 1-3: Severely limited, percent of patients: (0.14%)
  SAQ Question 1-3: Slightly limited, number of patients: 182
  SAQ Question 1-3: Slightly limited, percent of patients: (12.93%)
  SAQ Question 1-4: Mildly limited, number of patients: 172
  SAQ Question 1-4: Mildly limited, percent of patients: (12.23%)
  SAQ Question 1-4: Moderately limited, number of patients: 37
  SAQ Question 1-4: Moderately limited, percent of patients: (2.63%)
  SAQ Question 1-4: Not limited, number of patients: 754
